Results from paper PMC9585585, “Discovery of Small-Molecule Allosteric Inhibitors of PfATC as Antimalarials” (Journal of the American Chemical Society, 2022).
Like-named read-outs stand apart in the source and are kept apart here.

Assays:
PfATC = PfATC (Plasmodium falciparum, UniProt A0A5K1K910); test: biochemical
Description: Following washing with Lysis buffer
Excess imidazole was removed and the His-tag was cleaved
400Then, the sample was loaded onto a 5 ml HiTrap SP HP column (GE Healthcare, USA) and
410PfATC activity assay. Enzymatic reactions were performed in a total volume of 150 µL in 50 mM
Small-molecule dose-response curves were
The reactions were initiated by adding CP and quenched after 10 min with
After plates were sealed with transparent sealing
(§1) 420tape to prevent evaporation and incubated overnight in the dark place at room temperature. After
Analyses were performed using
The enzymatic assay was performed as described herein above for
Briefly, the reaction was carried out at room
The reaction was initiated by
Then the plate was covered by sealing
(§2) 430tape and kept in dark place at room temperature and then heated to 95 °C for 15min in dark and kept

HsATC = target: T1, HsATC (Homo sapiens, UniProt P27708); test: HsATC activity assay; assay type: biochemical; conditions: in vitro activity assay, 10 mM L-aspartate, 5 mM carbamoyl phosphate; read-out: HsATC IC50
T1 construct: ATCase domain of CAD; made in house; host or cells: E. coli BL21 star
T1 sequence (P27708 1918-2225 limits assumed): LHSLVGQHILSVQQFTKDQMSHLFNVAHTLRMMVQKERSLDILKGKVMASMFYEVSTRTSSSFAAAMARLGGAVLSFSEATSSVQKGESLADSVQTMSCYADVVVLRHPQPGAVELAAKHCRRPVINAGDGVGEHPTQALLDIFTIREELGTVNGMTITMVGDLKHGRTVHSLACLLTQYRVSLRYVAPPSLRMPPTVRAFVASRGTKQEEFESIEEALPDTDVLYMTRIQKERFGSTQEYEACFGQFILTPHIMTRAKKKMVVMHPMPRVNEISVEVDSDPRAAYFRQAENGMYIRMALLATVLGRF
Description: 417100μL of stop mix (two volumes of Antipyrine (26.5 mM 2,3-Dimethyl-1-phenyl-3-pyrazolin-5-
418one in 50% (v/v) sulfuric acid) and one volume of 2,3-Butanedione monoxime (80 mM 2,3-
419Butanedione monoxime in 5% (v/v) acetic acid). After plates were sealed with transparent sealing
as §1
421incubation, the plates were heated at 95 °C for 15 min in dark place, and kept for 30 min before
422measuring at 466 nm suing a Synergy H1 Hybrid Reader (BioTek). Analyses were performed using
423Microsoft Excel and Graph Pad Prism.
424HsATC activity assay. The enzymatic assay was performed as described herein above for
425enzymatic assay of PfATC with minor modifications. Briefly, the reaction was carried out at room
426temperature in a total volume of 150 μl of 10 mM L-aspartate and 5 mM carbamoyl phosphate
427saturated substrate solution in 50 mM Tris-Acetate buffer pH 8.3. hsATC was pre-incubated with
428inhibitor and L-Asp for 10 min at room temperature on a shaker. The reaction was initiated by
429adding CP and stopped after 5 min with […] color mix. Then the plate was covered by sealing
as §2
431the plate in the dark for another 30 min before measuring the absorbance at 466 nm suing a Synergy
432H1 Hybrid Reader (BioTek). […]

[1] = in vitro enzyme assay, PfATC 50 nM, n = 3, read-out: IC50 against PfATC
[2] = in vitro activity assay, PfATC 50 nM, 2 mM CP, 1 mM aspartate, read-out: PfATC IC50

PfATC, sequence (A0A5K1K910 entry or part of it): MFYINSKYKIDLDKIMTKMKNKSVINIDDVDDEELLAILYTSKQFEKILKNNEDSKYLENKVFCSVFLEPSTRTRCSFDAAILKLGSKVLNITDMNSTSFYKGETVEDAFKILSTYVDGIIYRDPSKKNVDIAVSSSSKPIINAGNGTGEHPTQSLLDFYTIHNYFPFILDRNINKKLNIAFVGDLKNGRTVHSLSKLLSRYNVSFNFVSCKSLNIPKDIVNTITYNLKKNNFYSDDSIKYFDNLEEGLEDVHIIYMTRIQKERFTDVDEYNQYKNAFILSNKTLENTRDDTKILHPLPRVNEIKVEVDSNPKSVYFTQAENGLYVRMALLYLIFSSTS

Row | IC50 (PfATC; [1]) [nM] | IC50 (PfATC; [2]) [nM] | IC50 (HsATC) [nM] | IC50 (PfATC) [nM] | SMILES
1 | 4610 |  |  |  | C=CCNC(=O)c1cc(-c2ccccc2)sc1N [compound 3]
2 |  | 1470 | 1500 |  | COC(=O)c1cc(-c2ccccc2)sc1NC(=O)OC(C)(C)C [BDA-02]
3 |  | 2010 | 1050 |  | CC(C)(C)OC(=O)Nc1sc(-c2ccccc2)c(-c2ccccc2)c1C(=O)NCCc1ccc(O)cc1 [BDA-60]
4 |  | 14700 |  |  | O=C(Cc1c[nH]c2ccccc12)Nc1sc(-c2ccccc2)cc1C(=O)NCCc1ccccc1 [BDA-08]
5 |  | 1050 | 332 |  | CC(C)(C)OC(=O)Nc1sc(-c2ccccc2)cc1C(=O)Nc1ccccc1 [BDA-31]
6 |  | 12200 | 2420 |  | CC(C)(C)OC(=O)Nc1sc2c(c1C(=O)NCCc1ccc(O)cc1)CCC(c1ccccc1)C2 (centres unmarked) [BDA-42]
7 |  | 86900 | 704000 |  | COC(=O)c1c(NC(=O)OC(C)(C)C)sc2c1CCN(Cc1ccccc1)C2 [BDA-64]
8 |  | 1240 | 226 |  | CC(C)(C)OC(=O)Nc1sc(-c2cccc(N)c2)cc1C(=O)NCCc1ccc(O)cc1 [BDA-51]
9 |  | 800 | 381 |  | CC(C)(C)OC(=O)Nc1sc(-c2ccccc2)cc1C(=O)NCCN1CCOCC1 [BDA-57]
10 |  | 1870 | 287 |  | CC(C)(C)OC(=O)Nc1sc(-c2ccccc2)cc1C(=O)NCCc1ccc(S(N)(=O)=O)cc1 [BDA-06]
11 |  | 5080 | 298 |  | CC(C)(C)OC(=O)Nc1sc(-c2ccccc2)cc1C(=O)N1CCN(c2ccc(F)cc2)CC1 [BDA-10]
12 |  | 3770 | 124 |  | CC(C)(C)OC(=O)Nc1sc(-c2ccc(C=O)cc2)cc1C(=O)NCCc1ccc(O)cc1 [BDA-45]
13 |  | 6420 | 5170 |  | COC(=O)c1c(NC(=O)OC(C)(C)C)sc2c1CCC(c1ccccc1)C2 (centres unmarked) [BDA-65]
14 |  | 558 | 119 |  | Cc1ccc(-c2cc(C(=O)NCCc3ccc(O)cc3)c(NC(=O)OC(C)(C)C)s2)cc1 [BDA-52]
15 |  | 5940 | 729 |  | Cc1c(-c2ccccc2)sc(NC(=O)OC(C)(C)C)c1C(=O)NCCc1ccc(O)cc1 [BDA-49]
16 |  |  | 11400 |  | CC(C)(C)OC(=O)Nc1sc(-c2cncc(Cl)c2)cc1C(=O)NCCc1ccc(O)cc1 [BDA-40]
17 |  | 1660 | 125 |  | CC(C)(C)OC(=O)Nc1sc(-c2cccc(C=O)c2)cc1C(=O)NCCc1ccc(O)cc1 [BDA-48]
18 |  | 1620 | 585 |  | COc1ccc(CCNC(=O)c2cc(-c3ccccc3)sc2NC(=O)OC(C)(C)C)cc1 [BDA-29]
19 |  | 576 | 555 |  | CC(C)(C)OC(=O)Nc1sc(-c2ccccc2)cc1C(=O)NCCCc1ccccc1 [BDA-26]
20 | 3320 |  |  |  | CCCCNC(=O)c1cc(-c2ccccc2)sc1N [compound 4]
21 |  | 1270 | 1540 |  | COC(=O)c1cc(-c2ccccc2)sc1N [BDA-01]

Row | IC50 (PfATC; [1]) [nM] | IC50 (PfATC; [2]) [nM] | IC50 (HsATC) [nM] | IC50 (PfATC) [nM] | SMILES
22 |  | 181 | 403 |  | CC(C)(C)OC(=O)Nc1sc(-c2ccccc2)cc1C(=O)NCCc1ccc(O)c(O)c1 [BDA-25]
23 |  | 2760 | 641 |  | CC(C)(C)OC(=O)Nc1sc(Br)cc1C(=O)NCCc1ccc(O)cc1 [BDA-32]
24 |  | 1270 | 765 |  | Nc1sc(-c2ccccc2)cc1C(=O)NCCc1ccccc1 [BDA-05]
25 |  | 1360 | 1010 |  | COC(=O)c1c(NC(=O)OC(C)(C)C)sc2c1CCCC2 [BDA-67]
26 |  | 849 | 212 |  | CC(C)(C)OC(=O)Nc1sc(-c2ccccc2)cc1C(=O)NCc1ccccc1 [BDA-34]
27 |  |  | 3840 |  | CC(C)(C)OC(=O)Nc1sc2c(c1C(=O)NCCc1ccc(O)cc1)CCN(Cc1ccccc1)C2 [BDA-36]
28 |  | 1080 | 349 |  | CC(C)(C)OC(=O)Nc1sc(-c2ccccc2)cc1C(=O)Nc1ccc(N2CCOCC2)c(F)c1 [BDA-37]
29 |  | 1980 | 862 |  | CC(C)c1cc(C(=O)NCCc2ccc(O)cc2)c(N)s1 [BDA-61]
30 |  | 845 | 158 |  | CC(C)(C)OC(=O)Nc1sc(-c2ccc(F)cc2)cc1C(=O)NCCc1ccc(O)cc1 [BDA-54]
31 |  | 2200 | 1120 |  | CC(C)c1cc(C(=O)NCCc2ccc(O)cc2)c(NC(=O)OC(C)(C)C)s1 [BDA-62]
32 |  | 241 | 196 |  | CC(C)(C)OC(=O)NCC1CCN(C(=O)c2cc(-c3ccccc3)sc2NC(=O)OC(C)(C)C)CC1 [BDA-09]
33 |  | 4830 | 1230 |  | Nc1sc(Cc2ccccc2)cc1C(=O)NCCc1ccc(O)cc1 [BDA-58]
34 |  | 5640 | 15400 |  | CC(C)(C)OC(=O)Nc1sc(-c2ccccc2)cc1C(=O)NCC(c1ccccc1)c1ccccc1 [BDA-39]
35 |  | 1290 | 764 |  | COC(=O)c1c(N)sc2c1CCC(c1ccccc1)C2 (centres unmarked) [BDA-66]
36 |  | 3110 | 2590 |  | CC(C)(C)OC(=O)Nc1sc(Cc2ccccc2)cc1C(=O)NCCc1ccc(O)cc1 [BDA-59]
37 |  | 6110 | 830 |  | CC(C)(C)OC(=O)Nc1oc(-c2ccc(Cl)cc2)cc1C(=O)NCCc1ccc(O)cc1 [BDA-44]
38 |  | 639 | 268 |  | O=C(NCCc1ccccc1)c1cc(-c2ccccc2)sc1NCc1ncc[nH]1 [BDA-13]
39 |  | 996 | 116 |  | Nc1sc(-c2ccccc2)cc1C(=O)NCCc1ccc(S(N)(=O)=O)cc1 [BDA-07]
40 |  | 409 | 756 |  | Cc1ccc(CCNC(=O)c2cc(-c3ccccc3)sc2NC(=O)OC(C)(C)C)cc1 [BDA-23]
41 |  | 516 | 100 |  | CC(C)(C)OC(=O)Nc1sc(-c2ccc3c(c2)OCCO3)cc1C(=O)NCCc1ccc(O)cc1 [BDA-33]
42 |  | 1090 | 250 |  | CC(C)(C)OC(=O)Nc1sc(-c2ccccc2)cc1C(=O)N1CCN(c2ccc(O)cc2)CC1 [BDA-63]

Row | IC50 (PfATC; [1]) [nM] | IC50 (PfATC; [2]) [nM] | IC50 (HsATC) [nM] | IC50 (PfATC) [nM] | SMILES
43 |  | 1140 | 360 |  | Nc1sc(-c2ccccc2)cc1C(=O)NCCc1ccc(O)cc1 [BDA-50]
44 |  | 2620 | 397 |  | CC(C)(C)OC(=O)Nc1sc(-c2ccccc2)cc1C(=O)NCc1ccc(O)cc1 [BDA-30]
45 |  | 805 | 185 |  | CC(C)(C)OC(=O)Nc1sc(-c2ccccc2)cc1C(=O)NC1CCN(Cc2ccccc2)CC1 [BDA-38]
46 | 4910 |  |  |  | C#CCNC(=O)c1cc(-c2ccccc2)sc1N [compound 2]
47 |  | 1640 | 740 |  | Nc1sc(-c2ccccc2)cc1C(=O)NCCc1ccc(F)cc1 [BDA-46]
48 |  | 2720 | 383 |  | CC(C)(C)OC(=O)Nc1sc(-c2cccc(C#N)c2)cc1C(=O)NCCc1ccc(O)cc1 [BDA-53]
49 |  | 2080 | 234 |  | CC(C)(C)OC(=O)Nc1sc(-c2cnc(N)nc2)cc1C(=O)NCCc1ccc(O)cc1 [BDA-35]
50 |  | 1000 | 1630 |  | CC(C)(C)OC(=O)Nc1sc(-c2ccccc2)cc1C(=O)O [BDA-03]
51 |  | 18400 | 2090 |  | CC(C)(C)OC(=O)Nc1sc2c(c1C(=O)NCCc1ccc(O)cc1)CCCC2 [BDA-43]
52 |  | 876 | 556 |  | N#CC1(C(=O)Nc2sc(-c3ccccc3)cc2C(=O)NCCc2ccc(O)cc2)CC1 [BDA-70]
53 | 5690 |  |  |  | CCCNC(=O)c1cc(-c2ccccc2)sc1N [compound 5]
54 |  | 6310 | 2000 |  | CC(C)(C)OC(=O)Nc1sc(-c2ccccc2)cc1C(=O)NCCC1=CCCCC1 [BDA-20]
55 |  | 2220 | 556 |  | CC(C)(C)OC(=O)Nc1sc(-c2ccc(Cl)c(Cl)c2)cc1C(=O)NCCc1ccc(O)cc1 [BDA-56]
56 |  | 1530 | 238 |  | CC(C)(C)OC(=O)Nc1sc(-c2cccc(N3CCOCC3)c2)cc1C(=O)NCCc1ccc(O)cc1 [BDA-47]
57 |  | 1230 | 369 |  | CC(C)(C)OC(=O)Nc1sc(-c2ccccc2)cc1C(=O)NCC(=O)c1ccccc1 [BDA-27]
58 |  | 1150 | 308 |  | CC(C)(C)OC(=O)NCC(=O)Nc1sc(-c2ccccc2)cc1C(=O)NCCc1ccc(O)cc1 [BDA-17]
59 |  | 1630 | 391 |  | CC(C)(C)OC(=O)Nc1sc(-c2ccccc2)cc1C(=O)NCCc1ccc(F)cc1 [BDA-28]
60 |  |  | 58300 |  | COC(=O)c1c(N)sc2c1CCN(Cc1ccccc1)C2 [BDA-68]
61 |  |  |  | 1590 | COCCNC(=O)c1cc(-c2ccccc2)sc1N [compound 1]
